Reference: patent publication US8552037B2, “Tricyclic compound and pharmaceutical use thereof” (Takeda Pharmaceutical Company Limited, priority 2006, dated 2013)
pIC50: −log10 of the molar value.

Legend:
[1] = molecular target: human melatonin 2 receptors (human MT2 receptors) (Homo sapiens (Human), UniProt P49286); assay: Melatonin receptor binding assay, 2-[125I] Iodomelatonin, CHO-hMT2 cell membrane fraction; settings: binding inhibition of 2-[125I] Iodomelatonin, CHO-hMT2 membranes, 25° C., 2.5 hr
Sequence of human melatonin 2 receptors (human MT2 receptors) (P49286 whole entry): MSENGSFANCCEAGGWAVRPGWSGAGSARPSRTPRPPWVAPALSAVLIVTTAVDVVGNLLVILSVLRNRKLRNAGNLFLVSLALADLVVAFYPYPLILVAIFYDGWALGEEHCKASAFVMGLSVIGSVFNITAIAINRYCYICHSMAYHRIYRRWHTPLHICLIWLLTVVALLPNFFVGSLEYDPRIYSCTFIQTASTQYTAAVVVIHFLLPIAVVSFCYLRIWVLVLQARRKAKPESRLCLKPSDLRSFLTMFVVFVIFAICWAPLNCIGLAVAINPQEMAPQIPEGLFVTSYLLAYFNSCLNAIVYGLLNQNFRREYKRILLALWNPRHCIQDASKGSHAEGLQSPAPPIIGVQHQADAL
Method: (§1) Melatonin Receptor Binding Assay
(2) Preparation of CHO-hMT2 Cells Expressing Human Melatonin 2 Receptors
CHO-K1 cells (ATCC, #CCL-61) were plated at the concentration of 1.5×10^5 cells/cm^2 in a 6 well plate (ASAHI TECHNO GLASS), and cultured under the conditions of 37° C., 5% CO2 for 24 hr.
(§2) (3) Preparation of Cell Membrane Fraction of CHO Cell (CHO-hMelR7 and CHO-hMT2) Stably Expressing Human MT1 and MT2 Receptors
(§3) CHO-hMelR7 and CHO-hMT2 cells were plated using Cellfactory (Nunc, #170009) under the conditions of 1×10^8 cells/2000 mL/flask. The cells were grown to confluent, and recovered by the following method. As the medium for CHO-hMelR7 and CHO-hMT2, MEM α containing 10% FBS and penicillin/streptomycin was used. […] of geneticin was added to the medium for CHO-hMT2.
(§4) The medium was discarded, cells were washed twice with 200 mL of EDTA/PBS(−), 200 mL of EDTA/PBS(−) was further added, and the cells were stood still at room temperature for 20 min until they were released. […] The mixture was further centrifuged at 1,500 rpm for 10 min at 4° C., and the obtained pellets were suspended in 20 mL of ice-cooled homogenizing buffer [10 mM NaHCO3, 5 mM EDTA, Protease inhibitor Complete (Roche), pH 7.4]. The cell suspension was homogenized 3 times using a polytron homogenizer at 20,000 rpm for 30 sec. The obtained homogenate was centrifuged (2,000 rpm, 10 min, 4° C.) using a low speed cooling centrifuge. The supernatant was recovered in an ultracentrifugation tube and ultracentrifuged (40,000 rpm, 60 min, 4° C.) using an ultracentrifuge (Beckman, L-90K). To the obtained pellets was added a suspending buffer [50 mM Tris-HCl, 1 mM EDTA, Protease inhibitor Complete (Roche), pH 7.4], and the pellets were suspended by pipetting. The protein concentration of this suspension was measured, diluted to 2 mg/mL to give cell membrane fractions of CHO-hMelR7 and CHO-hMT2 cells. […] Protein was quantified using BCA protein assay kit (Pierce) with BSA as the standard.
(§5) (4) Preparation of Membrane Fraction Suspension
(§6) Immediately before use, the membrane fractions of CHO-hMelR7 and CHO-hMT2 cells of the above-mentioned (3) were diluted 20-fold with assay buffer (50 mM Tris-HCl, pH 7.7).
(§7) Iodomelatonin (#NEX236, PerkinElmer) was diluted with the assay buffer to 400 pM for MT1 and 1 nM for MT2.
(§8) Then, a test compound (compound solution diluted with DMSO to 200-fold of the final measurement concentration) was added by 2 μL. 2 μL of DMSO was added to each well of the total binding control section, and 100 μM cold Melatonin solution (Sigma, diluted with DMSO to 100 μM) was added to each well of the nonspecific binding control section by 2 μL. Then, the membrane fraction suspension (100 μL) was added. […] Iodomelatonin solution of the above-mentioned (5) was added to each well mentioned above by 20 μL, and a binding reaction was carried out at 25° C. for 2.5 hr in a micromixer (TAITEC, Bioshaker M.BR-024).
(§9) Using a cell harvester (PerkinElmer), the binding reaction mixture in each well of the 96-well plate was transferred to a treated (immersed in 50 mM Tris, pH 7.7 in advance) filter plate (UniFilter GF/C, PerkinElmer) and filtered. After filtration, the plate was washed 4 times with the assay buffer, and dried in a dryer (42° C.) for 2 hr or more. 25 μL of a liquid scintillator (MicroScint O, PerkinElmer) was added to each well of the filter plate after drying, and the luminescence of scintillator was measured by TopCount (PerkinElmer) for 1 min.
(§10) Specific binding is a value obtained by subtracting nonspecific binding from the total binding. The binding inhibitory activity of the test compound is shown by the ratio of the value obtained by subtracting the measurement value when the test compound was added from the total binding, to the specific binding.

[2] = molecular target: human melatonin 1 receptors (human MT1 receptors) (Homo sapiens (Human), UniProt P48039); assay: Melatonin receptor binding assay, 2-[125I] Iodomelatonin, CHO-hMelR7 cell membrane fraction; settings: binding inhibition of 2-[125I] Iodomelatonin, CHO-hMelR7 membranes, 25° C., 2.5 hr
Sequence of human melatonin 1 receptors (human MT1 receptors) (P48039 whole entry): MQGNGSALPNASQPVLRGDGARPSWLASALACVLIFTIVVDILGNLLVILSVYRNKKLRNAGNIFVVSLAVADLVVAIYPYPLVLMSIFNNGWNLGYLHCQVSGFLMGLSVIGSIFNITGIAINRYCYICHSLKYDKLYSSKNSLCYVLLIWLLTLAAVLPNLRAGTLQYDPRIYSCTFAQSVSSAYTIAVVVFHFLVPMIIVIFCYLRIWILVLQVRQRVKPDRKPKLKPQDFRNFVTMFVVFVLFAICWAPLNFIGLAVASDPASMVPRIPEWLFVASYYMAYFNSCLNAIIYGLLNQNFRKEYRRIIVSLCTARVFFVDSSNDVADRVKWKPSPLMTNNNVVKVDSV
Method: as §1
(1) Preparation of CHO-hMelR7 Cells Expressing Human Melatonin 1 Receptors
as §2, §3, §4, §5, §6, §7, §8, §9, §10

[3] = In vitro metabolic stability test; assay type: in vitro ADME; settings: human liver microsome, NADPH production system, 37° C., 20 min incubation, HPLC-UV
Method: In Vitro Metabolic Stability Test
(1) Preparation of Analysis Sample
The necessary amounts of the analysis samples were prepared at the following composition ratio. Test compound mixture: 0.1 mol/L phosphate buffer (pH 7.4) (41 μL), control microsome (manufactured by Gentest, human lymphoblastoid cell-derived control microsome, 10 mg protein/mL) (8 μL), and test compound 0.1 mM methanol solution (1 μL). Microsome mixed solution: 0.1 mol/L phosphate buffer (pH 7.4) (9 μL), human liver microsome (manufactured by XENOTECH, H0610, 20 mg protein/mL) (1 μL), and purified water (20 μL). NADPH production system: 50 mmol/L β-NADP+ (200 μL), 500 mmol/L Glucose-6-phosphate (200 μL), 150 unit/mL Glucose-6-phosphate dehydrogenase (200 μL), 0.1 mol/L MgCl2 (1 mL), and purified water (2.4 mL).
Microsome mixed solution (30 μL) and NADPH production system (20 μL) were sequentially dispensed to each well of a 96 well plate (type 3371, Corning), and a test compound mixture (50 μL) was added. Acetonitrile (100 μL) was added before start of incubation at 37° C. or 20 min later to give samples before and after incubation. These samples were centrifuged (3,000 rpm, 10 min), and the supernatant was dispensed to a 96 well plate by about 100 μL and 2-fold diluted with purified water (100 μL). 90 μL thereof was analyzed by HPLC.
HPLC analysis Conditions • Instrument: Shimadzu LC10vp • Column: CAPCELL PAK C18 MGII (4.6×75 mm, 3 μm) • Mobile phase A: 10 mmol/L ammonium acetate:acetonitrile=9:1 • Mobile phase B: 10 mmol/L ammonium acetate:acetonitrile=1:9 • Flow rate: 1 mL/min • Column temperature: 40° C. • Detection: UV (250 nm) • Gradient: […]
(3) Data Analysis and Results
Elimination percentage was determined from the difference in the unchanged compound peak areas before and after the start of the reaction, normalized based on the reaction time and microsome concentration, and the elimination rate (%/min/mg) was calculated.

SMILES | pIC50 [1] | pIC50 [2] | elimination rate (%/min/mg) [3] [%/min/mg] | melting point [°C]
CC(=O)NCC[C@@H]1CCc2ccc3nc(C)oc3c21 [Example 12, (S)-N-[2-(2-Methyl-7,8-dihydro-6H-indeno[5,4-d][1,3]oxazol-8-yl)ethyl]acetamide] | 9.89 | 10.24 | −0.3 | 
CC(=O)NCCC1CCc2ccc3nc(C)sc3c21 (stereo not shown) [Example 19, N-[2-(2-Methyl-7,8-dihydro-6H-indeno[5,4-d][1,3]thiazol-8-yl)ethyl]acetamide] | 9.55 | 9.82 | 2.4 | 
CC(=O)NCC[C@@H]1CCc2ccc3nc(C)sc3c21 [Example 20, (S)-N-[2-(2-Methyl-7,8-dihydro-6H-indeno[5,4-d][1,3]thiazol-8-yl)ethyl]acetamide] | 9.92 | 10.42 | 2.7 | 
Cc1nc2ccc3c(c2o1)C(CCNC(=O)C(F)(F)F)CC3 (stereo not shown) [Example 45, 2,2,2-Trifluoro-N-[2-(2-methyl-7,8-dihydro-6H-indeno[5,4-d][1,3]oxazol-8-yl)ethyl]acetamide] | 9.85 | 10.02 |  | 104 to 106

Continued, values first:

pIC50 [1] | pIC50 [2] | elimination rate (%/min/mg) [3] [%/min/mg] | melting point [°C] | SMILES
10.31 | 10.52 | 2.6 |  | CCC(=O)NCC[C@@H]1CCc2ccc3nc(C)oc3c21 [Example 15, (S)-N-[2-(2-Methyl-7,8-dihydro-6H-indeno[5,4-d][1,3]oxazol-8-yl)ethyl]propionamide]
9.55 | 9.27 | 2.6 | 126 to 128 | COc1nc2ccc3c(c2o1)C(CCNC(C)=O)CC3 (stereo not shown) [Example 38, N-[2-(2-Methoxy-7,8-dihydro-6H-indeno[5,4-d][1,3]oxazol-8-yl)ethyl]acetamide]
